ChEMBL document CHEMBL3885861, “Open TG-GATES”

Species on record: Rattus norvegicus
Assay: Open TG-GATES - Regimen: Single
Assay type: toxicity, organism-based, Sprague-Dawley
Set-up: regimen Single, gender Male, age 6 weeks
Conditions: in vivo, po, 60 mg/kg, route gavage, dose level High; for APTT / Bas / Eos / Fbg / Hb / Ht / Lym / MCH / MCHC / MCV / Mono / Neu / PT / Plat / RBC / Ret / WBC: tissue Blood; for KIDNEY_L / KIDNEY_R / KIDNEY_TOTAL: tissue Kidney; for LIVER: tissue Liver; for A/G / ALP / ALT / AST / BUN / CRE / Ca / Cl / DBIL / GLC / IP / K / LDH / Na / PL / RALB / TBIL / TC / TG / TP / gamma-GTP: tissue Plasma

Compound: CC(C)NNC(=O)c1ccncc1 [IPRONIAZID]
- TERMINAL_BW (3 h): 204.9 g
- APTT (3 h): 22.1 s
- Bas (3 h): 0%
- Eos (3 h): 1%
- Fbg (3 h): 294 mg/dL
- Hb (3 h): 12.7 g/dL
- Ht (3 h): 37%
- Lym (3 h): 74.8%
- MCH (3 h): 20.9 pg
- MCHC (3 h): 34.2%
- MCV (3 h): 61 fL
- Mono (3 h): 2%
- Neu (3 h): 21.8%
- PT (3 h): 16.2 s
- Plat (3 h): 124.5 x10_4/uL
- RBC (3 h): 608.8 x10_4/ul
- Ret (3 h): 7.9%
- WBC (3 h): 90.6 x10_2/uL
- KIDNEY_L (3 h): 1 g
- KIDNEY_R (3 h): 1 g
- KIDNEY_TOTAL (3 h): 1.9 g
- LIVER (3 h): 8.8 g
- A/G (3 h): 1.3
- ALP (3 h): 1312.5 IU/L
- ALT (3 h): 35 IU/L
- AST (3 h): 72.2 IU/L
- BUN (3 h): 12 mg/dL
- CRE (3 h): 0.2 mg/dL
- Ca (3 h): 10.5 mg/dL
- Cl (3 h): 105.8 meq/L
- DBIL (3 h): 0 mg/dL
- GLC (3 h): 180.5 mg/dL
- IP (3 h): 9.8 mg/dL
- K (3 h): 4 meq/L
- LDH (3 h): 221.5 IU/L
- Na (3 h): 141.2 meq/L
- PL (3 h): 136 mg/dL
- RALB (3 h): 2.9 g/dL
- TBIL (3 h): 0 mg/dL
- TC (3 h): 78 mg/dL
- TG (3 h): 34.8 mg/dL
- TP (3 h): 5.2 g/dL
- gamma-GTP (3 h): 1 IU/L
- TERMINAL_BW (6 h): 212.4 g
- APTT (6 h): 21.7 s
- Bas (6 h): 0%
- Eos (6 h): 0.8%
- Fbg (6 h): 325.8 mg/dL
- Hb (6 h): 13 g/dL
- Ht (6 h): 38%
- Lym (6 h): 72.2%
- MCH (6 h): 21 pg
- MCHC (6 h): 34.3%
- MCV (6 h): 61.4 fL
- Mono (6 h): 2%
- Neu (6 h): 23.8%
- PT (6 h): 15.6 s
- Plat (6 h): 125.7 x10_4/uL
- RBC (6 h): 619.8 x10_4/ul
- Ret (6 h): 8%
- WBC (6 h): 79.9 x10_2/uL
- KIDNEY_L (6 h): 0.9 g
- KIDNEY_R (6 h): 0.9 g
- KIDNEY_TOTAL (6 h): 1.8 g
- LIVER (6 h): 9.2 g
- A/G (6 h): 1.3
- ALP (6 h): 1181.8 IU/L
- ALT (6 h): 35 IU/L
- AST (6 h): 75.4 IU/L
- BUN (6 h): 8.8 mg/dL
- CRE (6 h): 0.1 mg/dL
- Ca (6 h): 10.8 mg/dL
- Cl (6 h): 106.8 meq/L
- DBIL (6 h): 0.002 mg/dL
- GLC (6 h): 180 mg/dL
- IP (6 h): 9.9 mg/dL
- K (6 h): 4.1 meq/L
- LDH (6 h): 237.8 IU/L
- Na (6 h): 142 meq/L
- PL (6 h): 159.2 mg/dL
- RALB (6 h): 3 g/dL
- TBIL (6 h): 0.002 mg/dL
- TC (6 h): 93.6 mg/dL
- TG (6 h): 44.6 mg/dL
- TP (6 h): 5.5 g/dL
- gamma-GTP (6 h): 1.4 IU/L
- TERMINAL_BW (9 h): 196.4 g
- APTT (9 h): 22.5 s
- Bas (9 h): 0%
- Eos (9 h): 1%
- Fbg (9 h): 320.6 mg/dL
- Hb (9 h): 13 g/dL
- Ht (9 h): 37.9%
- Lym (9 h): 76%
- MCH (9 h): 20 pg
- MCHC (9 h): 34.3%
- MCV (9 h): 58.3 fL
- Mono (9 h): 1.4%
- Neu (9 h): 21%
- PT (9 h): 15.9 s
- Plat (9 h): 121.4 x10_4/uL
- RBC (9 h): 650.4 x10_4/ul
- Ret (9 h): 6.3%
- WBC (9 h): 55.2 x10_2/uL
- KIDNEY_L (9 h): 0.9 g
- KIDNEY_R (9 h): 0.9 g
- KIDNEY_TOTAL (9 h): 1.8 g
- LIVER (9 h): 8 g
- A/G (9 h): 1.2
- ALP (9 h): 1174.6 IU/L
- ALT (9 h): 27.2 IU/L
- AST (9 h): 65 IU/L
- BUN (9 h): 7.6 mg/dL
- CRE (9 h): 0.2 mg/dL
- Ca (9 h): 10.4 mg/dL
- Cl (9 h): 107 meq/L
- DBIL (9 h): 0.006 mg/dL
- GLC (9 h): 184.6 mg/dL
- IP (9 h): 9.4 mg/dL
- K (9 h): 4 meq/L
- LDH (9 h): 176.2 IU/L
- Na (9 h): 142.2 meq/L
- PL (9 h): 139.6 mg/dL
- RALB (9 h): 3.1 g/dL
- TBIL (9 h): 0.004 mg/dL
- TC (9 h): 84.4 mg/dL
- TG (9 h): 30.4 mg/dL
- TP (9 h): 5.6 g/dL
- gamma-GTP (9 h): 1 IU/L
- TERMINAL_BW (24 h): 208.5 g
- APTT (24 h): 21.7 s
- Bas (24 h): 0%
- Eos (24 h): 1%
- Fbg (24 h): 336.8 mg/dL
- Hb (24 h): 13.6 g/dL
- Ht (24 h): 39.4%
- Lym (24 h): 80.6%
- MCH (24 h): 21.3 pg
- MCHC (24 h): 34.5%
- MCV (24 h): 61.8 fL
- Mono (24 h): 2.4%
- Neu (24 h): 14.8%
- PT (24 h): 15.4 s
- Plat (24 h): 119.6 x10_4/uL
- RBC (24 h): 637.4 x10_4/ul
- Ret (24 h): 7.5%
- WBC (24 h): 66.9 x10_2/uL
- KIDNEY_L (24 h): 0.9 g
- KIDNEY_R (24 h): 1 g
- KIDNEY_TOTAL (24 h): 1.9 g
- LIVER (24 h): 9.2 g
- A/G (24 h): 1.3
- ALP (24 h): 1223.4 IU/L
- ALT (24 h): 37 IU/L
- AST (24 h): 74.4 IU/L
- BUN (24 h): 14 mg/dL
- CRE (24 h): 0.2 mg/dL
- Ca (24 h): 10.6 mg/dL
- Cl (24 h): 107 meq/L
- DBIL (24 h): 0.002 mg/dL
- GLC (24 h): 187.6 mg/dL
- IP (24 h): 7.8 mg/dL
- K (24 h): 4.1 meq/L
- LDH (24 h): 240.4 IU/L
- Na (24 h): 142.6 meq/L
- PL (24 h): 148.6 mg/dL
- RALB (24 h): 3.1 g/dL
- TBIL (24 h): 0.02 mg/dL
- TC (24 h): 91 mg/dL
- TG (24 h): 60.6 mg/dL
- TP (24 h): 5.6 g/dL
- gamma-GTP (24 h): 1.6 IU/L
